According to PubChem BioAssay (NCI):
Where “and” joins values, the source holds several entries; their conditions need not be identical. Equal values may be shown once.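 Grown in 96-well plates, cells were treated for 48 hours with each compound at five concentrations. Insufficient inhibition: endpoint recorded as highest concentration tested. GI50 marks 50% less growth. TGI is the concentration that stops growth completely.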

How the values were obtained:
Test in all cases: NCI tumour cell line growth inhibition, 48 h
[1] = system: EKVX NSCLC
[2] = system: HCT-15 colon
[3] = system: MCF7 breast
[4] = system: MDA-MB-231 breast
[5] = system: MDA-MB-435
[6] = system: NCI-H226 lung
[7] = system: SK-OV-3 ovarian
[8] = system: SN12C renal
[9] = system: UO-31 renal
[10] = system: NCI-H522 lung

SMILES | TGI [1] | TGI [2] | TGI [3] [µM] | TGI [4] | TGI [5] [µM] | TGI [6] | TGI [7] [µM] | TGI [8] | TGI [9] [µM] | GI50 [1] | GI50 [2] | GI50 [6] | GI50 [10] | TGI [10] | GI50 [7] [µM] | GI50 [8] | GI50 [9] [µM] | GI50 [4] | GI50 [5] | GI50 [3] [µM]
[N-]=[N+]=NC(c1cn(C2CC(O)C(CO)O2)c(=O)[nH]c1=O)C(Cl)I (stereo not drawn) | > 100 µM | > 100 µM | > 100 | > 100 µM | > 100 | > 100 µM | > 100 | > 100 µM | > 100 | – | – | – | – | – | – | – | – | – | – | –
CCC[CH2][Sn]1([CH2]CCC)[O]CC(CN(C)Cc2ccccc2)[O]1 (stereo not drawn) | 27.3 µM | 20.3 µM | – | – | – | 35.8 µM | 33.2 | 21.9 µM | 24.7 | 10.7 µM | 8.29 µM | 17.2 µM | 1.94 µM | 4.61 µM | 15.6 | 10.1 µM | 12.2 | – | – | –
COc1ccccc1-c1cc(=O)c2cc3c(cc2[nH]1)OCO3 | > 100 µM | > 100 µM | – | – | – | 88.8 µM | – | > 100 µM | > 100 | – | – | 22.8 µM | – | – | – | – | – | – | – | –
CC(=O)C1C(c2ccc(N(C)C)cc2)c2cc3c(cc2OC1(C)O)OCO3 (stereo not drawn) | > 100 µM | > 100 µM | – | – | – | – | > 100 | > 100 µM | > 100 | – | – | – | – | – | – | – | – | – | – | –
O=[P+](O)c1ccsc1 | > 100 µM | > 100 µM | – | – | – | – | > 100 | > 100 µM | > 100 | – | – | – | – | > 100 µM | – | – | – | – | – | –
COC(=O)c1cccn1C(=O)n1cccc1 | > 100 µM | – | – | – | – | > 100 µM | > 100 | > 100 µM | > 100 | – | – | – | – | > 100 µM | – | – | – | – | – | –
Cc1cccc(C)c1NC(=O)C1C(=O)N(c2c(C)cccc2C)C(=O)/C1=N\N (stereo not drawn) | > 100 µM | > 100 µM | – | – | – | > 100 µM | > 100 | > 100 µM | > 100 | – | – | – | – | > 100 µM | – | – | – | – | – | –
C[n+]1c2cc(N)ccc2cc2ccc(N)cc21 | 2.31 µM [middle of 4 runs] | 15.2 µM [middle of 4 runs] | – | 9.68 µM [middle of 4 runs] | – | 3.98 µM [middle of 4 runs] | – | 4.03 µM [middle of 4 runs] | – | 0.263 µM and 0.831 µM and 0.261 µM | 2.41 µM [middle of 4 runs] | 882 nM [middle of 4 runs] | 917 nM [middle of 4 runs] | 3.68 µM [middle of 4 runs] | – | 701 nM [middle of 4 runs] | – | 1.41 µM [middle of 4 runs] | 1.62 µM [middle of 4 runs] | –
O=C(CCN1CCN(c2ccccc2)CC1)N1CCc2c([nH]c3ccccc23)C1c1cccnc1 (stereo not drawn) | 34.7 µM | 30.9 µM | – | – | – | 71.9 µM | 33.7 | 29.6 µM | 26.1 | – | – | – | – | 30 µM | – | – | – | – | – | –
CC(C)(C)c1cc(-n2c(-c3ccc(Cl)cc3)nc3cc(C(=O)Nc4ccc(Cl)cc4)ccc32)n[nH]1 | – | – | > 100 | > 100 µM | – | > 100 µM | 66.4 | > 100 µM | > 100 | – | – | 10.4 µM | 3.9 µM | 94.8 µM | 21.6 | 5.82 µM | 2.69 | 23.7 µM | – | 3.93
CC(Nc1ccc(S(=O)(=O)N=C(N)N)cc1)c1c2ccccc2nc2ccccc12 (stereo not drawn) | > 100 µM | > 100 µM | – | – | – | 80.4 µM | 73.6 | > 100 µM | 65.6 | – | – | – | – | 38 µM | – | – | – | – | – | –
CC1=C(c2ccccc2)NC(=S)C(C)C(c2ccccc2)=N1 (stereo not drawn) | > 100 µM | > 100 µM | > 100 | > 100 µM | 69.3 | > 100 µM | > 100 | > 100 µM | > 100 | – | – | – | – | – | – | – | – | – | – | –
CSc1nc(NC2OC(COC(C)=O)C(OC(C)=O)C(OC(C)=O)C2OC(C)=O)c2c(n1)OCC2=O (stereo not drawn) | – | > 100 µM | – | – | – | > 100 µM | > 100 | > 100 µM | > 100 | – | – | – | – | > 100 µM | – | – | – | – | – | –
O=Nc1ccc(NO)c2ccccc12 | – | 31.7 µM | 31.3 | 47.5 µM | 3.57 | 38.4 µM | 35.6 | 11 µM | 26.4 | – | 14.9 µM | 16.8 µM | 13.2 µM | 27 µM | 19.1 | 2.68 µM | 13.2 | 10.3 µM | 1.94 µM | 10.5
NC(=O)/N=C1/CCC2C3CCCC2C13 | > 100 µM | – | – | – | – | > 100 µM | > 100 | > 100 µM | > 100 | – | – | – | – | > 100 µM | – | – | – | – | – | –
C#CCSc1cc(Cl)c(C)cc1S(=O)(=O)Nc1nc2ccccc2o1 | > 100 µM | 90 µM | > 100 | > 100 µM | 62.9 | > 100 µM | – | > 100 µM | 52.8 | 43.4 µM | 31.5 µM | 57 µM | 25.7 µM | 61.5 µM | – | 43.5 µM | 23.8 | 46.8 µM | 27.8 µM | 49.7
Cc1ccc(NC(=O)CC2Sc3ccccc3NC2=O)c(C)c1 (stereo not drawn) | > 100 µM | – | – | – | – | 33.5 µM | 33 | > 100 µM | 34.8 | – | – | – | – | 30.4 µM | – | – | – | – | – | –
c1ccc(CN2COc3c(ccc4c3OCN(Cc3ccccc3)C4)C2)cc1 | – | > 100 µM | > 100 | > 100 µM | > 100 | 5.65 µM | > 100 | > 100 µM | 1.41 | – | 0.0906 µM | 0.479 µM | 2.05 µM | > 100 µM | 0.639 | 0.559 µM | 0.122 | 0.564 µM | 1.72 µM | 0.515
O=C(O)CCC(N=Cc1nc(-c2ccccc2)oc1O)C(=O)O (stereo not drawn) | > 100 µM | > 100 µM | – | – | – | > 100 µM | > 100 | > 100 µM | > 100 | – | – | – | – | > 100 µM | – | – | – | – | – | –
COC(=O)C(C(=O)C(=O)Nc1ccc([N+](=O)[O-])cc1[N+](=O)[O-])c1nc2ccc(Cl)cc2[nH]c1=O (stereo not drawn) | > 100 µM | > 100 µM | – | – | – | > 100 µM | > 100 | > 100 µM | > 100 | – | – | – | – | – | – | – | – | – | – | –
CN(C)CCNC(=O)c1cccc(N(C)C(=O)c2ccccc2)c1[N+](=O)[O-] | – | > 100 µM | > 100 | > 100 µM | > 100 | > 100 µM | > 100 | > 10 µM | > 100 | – | – | – | – | > 100 µM | – | – | – | – | – | –
CCOC(=O)N1CCC(=O)C(CNC23CC4CC(CC(C4)C2)C3)C1 (stereo not drawn) | > 100 µM | – | – | – | – | > 100 µM | > 100 | > 100 µM | > 100 | – | – | – | – | 34 µM | – | – | – | – | – | –
